The experiment concerns Rh18 complex spheroid viability, percent test/control. Put plainly: Anticancer human tumor Rh18 cell line growth inhibition [Asc].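 As to all read-outs here: spheroids exposed to compound for 7 days.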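 As to viability, T/C: 100% = DMSO vehicle control wells.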 The conditions noted are these: for viability, T/C: stronger effect = lower value. On the procedure:
Multicellular complex tumor spheroid response to apoptosis pathway targeting inhibitors Alrizomadlin, Pelcitoclax, and Dasminapant in combination with a variety of drugs and investigational agents in selected tumor cell lines
The MDM2 inhibitor alrizomadlin, the Bcl-2/Bcl-xL inhibitor pelcitoclax, and the IAPs inhibitor dasminapant were evaluated both individually and in combination with standard of care and investigational anticancer small molecules within a complex spheroid model of solid tumors. . Complex spheroids include a stromal component modeled by human endothelial cells (HUVEC) and fibroblasts modeled by human mesenchymal stem cells (MSCs). The concentration ranges selected for each drug and investigational agent were based upon clinically achievable concentrations if the clinical Cmax of the agent was known.
Compounds. The drugs and investigational agents: alrizomadlin (APG-115; NSC831270), pelcitoclax (APG-1252; NSC835773), dasminapant (APG-1387;NSC834197), TAK-243 (NSC785004), copanlisib (NSC809693), olaparib (NSC753686), talazoparib (NSC767125), cobimetinib (NSC 768068), eltanexor (KPT-8602, NSC 794443), abemaciclib (NSC 768073), sotorasib (NSC818433), adagrasib (NSC 831453), MRTX-1133 (NSC 836407), Iadademestat (ORY1001, NSC 806812), and RMC-4630 (NSC839698), were obtained from the NCI Developmental Therapeutics Program Chemical Repository. The FDA-approved anticancer drug set is available from the Developmental Therapeutics Program at https://dtp.cancer.gov/organization/dscb/obtaining/available plates.htm. […] The stock solutions were prepared in dimethyl sulfoxide (DMSO, Sigma-Aldrich, St. Louis, MO, cat. D2650) at 800-fold the tested concentration and stored at -70 degrees C prior to their use. All drugs and investigational agents were tested over a range starting from a high concentration at or near the clinical Cmax and decreasing in half-log increments. If the clinical Cmax for an agent had not been determined, the highest concentration tested was 10 microM.
The patient-derived cancer (PDC) cell lines include five colon adenocarcinomas: 186277-243-T-J2-PDC, 616215-338-R-J1-PDC, 439559-082-T-J2-PDC, 463943-066-T-J2-PDC, and 519858-162-T-J1-PDC; three pancreatic carcinomas: 323965-272-R-J2-PDC, 521955-158-R6-J3-PDC, and 521955-158-R2-J5-PDC; two uterine sarcomas: 327498-152-R-J2-PDC and 993429-296-R-J1-PDC; two rhabdomyosarcomas: 755483-174-R-J1-PDC and 772245-204-R-J1-PDC; two soft tissue sarcomas: 126254-015-R-J1-PDC and 494315-158-R-J1-PDC; two malignant fibrous histiocytomas: 317291-083-R-J1-PDC and 596521-263-R-J1-PDC; two breast carcinomas: 171881-019-R-J1-PDC and 885512-296-R-J2-PDC; and one ovarian carcinoma: 6556581-035-R-J-PDC were obtained from the NCI PDMR, (https://pdmr.cancer.gov). The established cell lines HSSY-2 synovial sarcoma (RRID:CVCL 8719), SYO-1 synovial sarcoma (RRID:CVCL_7146), MPNST malignant peripheral neural sheath tumor were obtained from the Sloan Kettering Institute. The following established cell lines were purchased from the American Type Culture Collection (ATCC, Manassas, VA), Sor the received from the NCI repository:, PANC-1 pancreatic carcinoma (CRL-1469, RRID:CVCL_0480), OVCAR-5 ovarian carcinoma (RRID:CVCL_1628), OVCAR-8 ovarian carcinoma (RRID:CVCL_1629), , MCF-7 breast carcinoma (CRL-12584, RRID:CVCL_0031), MDA-MB-231 breast carcinoma (CRL-12532, RRID:CVCL_0062), NCI-H1876 small cell lung carcinoma (CRL-5902, RRID:CVCL_1503), NCI-H510A small cell lung carcinoma (HTB-184, RRID:CVCL_1565), NCI-H1417 (CRL-5869, RRID:CVCL_1469), and NCI-H196 small cell lung carcinoma (CRL-5823, RRID:CVCL_1509). Dr. Peter Houghton (Greehey Children's Cancer Research Institute, University of Texas Health Science Center, San Antonio, TX) provided Rh-18 rhabdomyosarcoma (RRID:CVCL_1659). Pooled donor human umbilical vein endothelial cells (HUVEC, Lonza, cat. CC-2519) and human mesenchymal stem cells (hMSC, Lonza, cat. PT-2501) were purchased from Lonza (Walkersville, MD).
Cell Culture. […]

pIC50: −log10 of the molar value. “And” between values parts separate entries of the source, which are not always exact repeats. Equal entries are not always repeated.

In general, pIC50 refers to −log10 of the IC50, conventionally taken in molar units. The viability, T/C is the ratio of treated to control.

Regarding `NC1CCC(NC2CC2c2ccccc2)CC1` (configuration not stated) + Cc1c(S(C)(=O)=O)c(-c2cc(F)cc(N3CCN(c4ccc(NS(=O)(=O)c5ccc(NC(CCN6CCC(C(=O)OCCCP(=O)(O)O)CC6)CSc6ccccc6)c(S(=O)(=O)C(F)(F)F)c5)cc4)CC3)c2)c(-c2ccc(Cl)cc2)n1C(C)C, the pIC50 was over 9.50 (curve of first compound, second compound 0.1 µM); over 9.50 (curve of first compound, second compound 0.316 µM); over 9.50 (curve of first compound, second compound 1 µM); over 9.50 (curve of first compound, second compound 3.16 µM); over 9.50 (curve of first compound, second compound 10 µM). For the same compound, the viability, T/C reads like this: (second compound 0.1 µM, first compound 0.000316 µM) 13.1%; (second compound 0.1 µM, first compound 0.001 µM) 13.2%; (second compound 0.1 µM, first compound 0.00316 µM) 10.9%; (second compound 0.1 µM, first compound 0.01 µM) 10.2%; (second compound 0.1 µM, first compound 0.0316 µM) 12.5%; (second compound 0.1 µM, first compound 0.1 µM) 11.2%. For the same compound, the viability, T/C (second compound 0.316 µM, first compound 0.000316 µM) was 10.4%; the viability, T/C (second compound 0.316 µM, first compound 0.001 µM) was 9.84%; the viability, T/C (second compound 0.316 µM, first compound 0.00316 µM) is 8.02%; the viability, T/C (second compound 0.316 µM, first compound 0.01 µM) is 8.28%; the viability, T/C (second compound 0.316 µM, first compound 0.0316 µM) was 8.54%; the viability, T/C (second compound 0.316 µM, first compound 0.1 µM) was 8.22%. In addition, the viability, T/C was 6.65% (second compound 1 µM, first compound 0.000316 µM); 6.65% (second compound 1 µM, first compound 0.001 µM); 6.88% (second compound 1 µM, first compound 0.00316 µM); 4.85% (second compound 1 µM, first compound 0.01 µM); 5.16% (second compound 1 µM, first compound 0.0316 µM); 5.77% (second compound 1 µM, first compound 0.1 µM). Further, the viability, T/C reads like this: (second compound 3.16 µM, first compound 0.000316 µM) 4.21%; (second compound 3.16 µM, first compound 0.001 µM) 3.65%; (second compound 3.16 µM, first compound 0.00316 µM) 3.75%; (second compound 3.16 µM, first compound 0.01 µM) 3.61%; (second compound 3.16 µM, first compound 0.0316 µM) 3.49%; (second compound 3.16 µM, first compound 0.1 µM) 4.43%. In addition, the viability, T/C reads like this: (second compound 10 µM, first compound 0.000316 µM) 2.72%; (second compound 10 µM, first compound 0.001 µM) 3.65%; (second compound 10 µM, first compound 0.00316 µM) 3%; (second compound 10 µM, first compound 0.01 µM) 2.12%; (second compound 10 µM, first compound 0.0316 µM) 2.21%; (second compound 10 µM, first compound 0.1 µM) 2.07%.

For the compound `NC1CCC(NC2CC2c2ccccc2)CC1` (configuration not stated), the viability, T/C was 135% and 130% and 96.5% (compound 0.000316 µM); 134% and 133% and 98% (compound 0.001 µM); 124% and 114% and 102% (compound 0.00316 µM); 120% and 114% and 103% (compound 0.01 µM); 120% and 98.2% and 110% (compound 0.0316 µM); 114% and 119% and 102% (compound 0.1 µM). The negative logarithm of the IC50 (pIC50) (curve of compound) is under 7.00.
